The results in this text go back to US20140243302A1, “BRIDGED BICYCLIC COMPOUNDS FOR THE TREATMENT OF BACTERIAL INFECTIONS” (priority 2011, published 2014).

Converted amounts (≈) assume the structure as drawn.

For this test, the system named is Staphylococcus aureus Smith. Kind of test: MIC assay, modified agar dilution (CLSI), S. aureus Smith. It counts as cell-based. Conditions: Staphylococcus aureus, agar dilution, 35° C., 16-20 hr; lowest concentration that completely inhibited growth; read-out: S_aureus_Smith_WT_MIC. The procedure:
The potency of antibacterial agents was measured using the Minimal Inhibitory Concentration (MIC) assay. The assay measures the ability of test agents to inhibit the growth of bacteria on agar-containing medium.
The bacterial test strains used were exemplified by Staphylococcus aureus Smith, Enterococcus faecium A2373, Streptococcus pneumoniae IID554, and Escherichia coli ATCC 25922. All strains were maintained as frozen stocks held at −80° C. in skim milk. Other bacterial test strains are well known to those skilled in the art and can be used for testing.
Mueller Hinton Agar (MHA BBL; Becton Dickinson and Company, Sparks, Md.) was used as the medium. MHA was supplemented with 5% defibrinated horse blood (DHB; Nippon Biotest Laboratories inc.) to support the growth of S. pneumoniae and E. faecium.
MIC values were determined using a modified agar dilution procedure described by the Clinical and Laboratory Standards Institute (CLSI; Methods for Dilution Antimicrobial Susceptibility Tests for Bacteria That Grow Aerobically; Approved Standard—Eighth Edition. CLSI document M07-A8 [ISBN 1-56238-689-1]. Clinical and Laboratory Standards Institute, 940 West Valley Road, Suite 1400, Wayne, Pa. 19087-1898 USA, 2009).
Stock solutions (6.4 mgmL) of test compounds were prepared in 100% ultrapure dimethyl sulfoxide (DMSO; source) on the day of the assay. Subsequent serial dilutions were performed to generate solutions with concentrations ranging from 6.4 to 0.0002 mgmL in 100% DMSO.
Agar medium containing test compound was prepared by adding the dilutions of antimicrobial solution to molten MHA at a temperature of 45-50° C. The agar and antimicrobial solution were mixed thoroughly, poured into petri dishes, and allowed to solidify at room temperature. The final concentration of test compounds in the MHA medium ranged from 128 to 0.001 μg/mL with two-fold dilutions. MHA plates lacking antibacterial compound were used for growth controls.
Prior to susceptibility testing, the bacterial isolates were removed from frozen storage, thawed at room temperature, sub-cultured to MHA medium and incubated overnight at 35° C. S. pneumoniae and E. faecium were subcultured on MHA supplemented with 5% DHB at 35° C. with […]. Colonies from each plate were suspended in normal saline. This suspension was adjusted to the turbidity of a 0.5 McFarland standard, 1-2×10^8 colony forming units (CFU) per mL, and diluted 100-fold to 1-2×10^6 CFUmL.
Suspensions of bacterial cultures were applied to the surface of MHA plates containing test compound as well as to a growth control plate lacking test compound using an inoculum-replicating device with 4 mm pins. The replicating device applied 5 uL of the bacterial suspension such that each spot contained approx. 1×10^4 CFU. Plates were dried for about 40 min and incubated at 35° C. for 16-20 hr prior to scoring.
On to `CCOC(=O)c1cnc2ccc(OC)nc2c1CCC12CCC(NCc3ccc4c(n3)NC(=O)CO4)(CC1)CC2` [Example 2, Ethyl 6-Methoxy-4-(2-(4-((3-oxo-3,4-dihydro-2H-pyrido[3,2-b][1,4]oxazin-6-yl)methylamino)bicyclo[2.2.2]octan-1-yl)ethyl)-1,5-naphthyridine-3-carboxylate], for which the MIC worked out at 0.125 µg/mL (≈ 0.229 µM).
Regarding `COc1ccc2ncc(N)c(CCC34CCC(NCc5ccc6c(n5)NC(=O)CO6)(CC3)CC4)c2n1.Cl` [Example 3, 6-((4-(2-(3-Amino-6-methoxy-1,5-naphthyridin-4-yl)ethyl)bicyclo[2.2.2]octan-1-ylamino)methyl)-2H-pyrido[3,2-b][1,4]oxazin-3(4H)-one Hydrochloride], the MIC is 0.25 µg/mL.
Take `COc1ccc2ncc(F)c(CCC34CCC(NCc5ccc6c(n5)NC(=O)CO6)(CC3)CC4)c2n1.Cl` [Example 4, 6-((4-(2-(3-Fluoro-6-methoxy-1,5-naphthyridin-4-yl)ethyl)bicyclo[2.2.2]octan-1-ylamino)methyl)-2H-pyrido[3,2-b][1,4]oxazin-3(4H)-one Hydrochloride]: the MIC worked out at 0.016 µg/mL.
As for `COc1ccc2ncc(Cl)c(CCC34CCC(NCc5ccc6c(n5)NC(=O)CO6)(CC3)CC4)c2n1.Cl` [Example 5, 6-((4-(2-(3-Chloro-6-methoxy-1,5-naphthyridin-4-yl)ethyl)bicyclo[2.2.2]octan-1-ylamino)methyl)-2H-pyrido[3,2-b][1,4]oxazin-3(4H)-one Hydrochloride], the figure is 0.031 µg/mL; as for `COc1ccc2ncc(Cl)c(C#CC34CCC(NCc5ccc6c(n5)NC(=O)CO6)(CC3)CC4)c2n1.Cl` [Example 6, 6-((4-((3-Chloro-6-methoxy-1,5-naphthyridin-4-yl)ethynyl)bicyclo[2.2.2]octan-1-ylamino)methyl)-2H-pyrido[3,2-b][1,4]oxazin-3(4H)-one Hydrochloride], 0.031 µg/mL; as for `O=C1COc2ccc(CNC34CCC(/C=C\c5c(Cl)cnc6ccc(O)nc56)(CC3)CC4)nc2N1` [Example 7, (Z)-6-((4-(2-(3-Chloro-6-hydroxy-1,5-naphthyridin-4-yl)vinyl)bicyclo[2.2.2]octan-1-ylamino)methyl)-2H-pyrido[3,2-b][1,4]oxazin-3(4H)-one], 0.5 µg/mL (≈ 1.02 µM).
Regarding `COc1ccc2ncc(Cl)c(/C=C\C34CCC(NCc5ccc6c(n5)NC(=O)CO6)(CC3)CC4)c2n1` [Example 8, (Z)-6-((4-(2-(3-Chloro-6-methoxy-1,5-naphthyridin-4-yl)vinyl)bicyclo[2.2.2]octan-1-ylamino)methyl)-2H-pyrido[3,2-b][1,4]oxazin-3(4H)-one], the MIC came out at 0.5 µg/mL (≈ 0.988 µM).
In the case of `O=C1COc2ccc(CNC34CCC(CCc5c(Cl)cnc6ccc(O)nc56)(CC3)CC4)nc2N1` [Example 9, 6-((4-(2-(3-Chloro-6-hydroxy-1,5-naphthyridin-4-yl)ethyl)bicyclo[2.2.2]octan-1-ylamino)methyl)-2H-pyrido[3,2-b][1,4]oxazin-3(4H)-one], the MIC turned out to be 0.125 µg/mL (≈ 0.253 µM).
Take `COc1ccc2ncc(Cl)c(/C=C/C34CCC(NCc5ccc6c(n5)NC(=O)CO6)(CC3)CC4)c2n1.Cl` [Example 10, (E)-6-((4-(2-(3-Chloro-6-methoxy-1,5-naphthyridin-4-yl)vinyl)bicyclo[2.2.2]octan-1-ylamino)methyl)-2H-pyrido[3,2-b][1,4]oxazin-3(4H)-one Hydrochloride]: the MIC worked out at 0.016 µg/mL.
Consider `Cc1cccc2sc(C(=O)C34CCC(NCc5ccc6c(n5)NC(=O)CO6)(CC3)CC4)nc12` [Example 11, 6-((4-(4-Methylbenzo[d]thiazole-2-carbonyl)bicyclo[2.2.2]octan-1-ylamino)methyl)-2H-pyrido[3,2-b][1,4]oxazin-3(4H)-one], for which the MIC came to 2 µg/mL (≈ 4.32 µM).
As for `COc1ccc2ncc(F)c(CCC34CCC(NCc5ccc6c(n5)NC(=O)CO6)(CC3)C4)c2n1` [Example 12, 6-((4-(2-(3-Fluoro-6-methoxy-1,5-naphthyridin-4-yl)ethyl)bicyclo[2.2.1]heptan-1-ylamino)methyl)-2H-pyrido[3,2-b][1,4]oxazin-3(4H)-one], the MIC is 0.25 µg/mL (≈ 0.524 µM).
Consider `COc1ccc2ncc(Cl)c(OCC34CCC(NCc5ccc6c(n5)NC(=O)CO6)(CC3)CC4)c2n1` [Example 15, 6-((4-((3-Chloro-6-methoxy-1,5-naphthyridin-4-yloxy)methyl)bicyclo[2.2.2]octan-1-ylamino)methyl)-2H-pyrido[3,2-b][1,4]oxazin-3(4H)-one], for which the MIC came out at 0.031 µg/mL (≈ 0.0608 µM).
Turning to `COc1ccc2ncc(Cl)c(CCC34CCC(NCc5ccc6c(n5)NC(=O)CO6)(CC3)CO4)c2n1.Cl` [Example 16, 6-((1-(2-(3-Chloro-6-methoxy-1,5-naphthyridin-4-yl)ethyl)-2-oxabicyclo[2.2.2]octan-4-ylamino)methyl)-2H-pyrido[3,2-b][1,4]oxazin-3(4H)-one Hydrochloride], the MIC was determined as 0.016 µg/mL.
Regarding `COc1ccc2nccc(CCC34CCC(NCc5ccc6c(n5)NC(=O)CO6)(CC3)CO4)c2n1.Cl` [Example 17, 6-((1-(2-(6-Methoxy-1,5-naphthyridin-4-yl)ethyl)-2-oxabicyclo[2.2.2]octan-4-ylamino)methyl)-2H-pyrido[3,2-b][1,4]oxazin-3(4H)-one Hydrochloride], the MIC amounted to 0.031 µg/mL.
As for `COc1ccc2ncc(F)c(/C=C/C34CCC(NCc5ccc6c(n5)NC(=O)CO6)(CC3)CO4)c2n1` [Example 19, (E)-6-((1-(2-(3-Fluoro-6-methoxy-1,5-naphthyridin-4-yl)vinyl)-2-oxabicyclo[2.2.2]octan-4-ylamino)methyl)-2H-pyrido[3,2-b][1,4]oxazin-3(4H)-one], the MIC was 0.008 µg/mL (≈ 0.0163 µM).
With `COc1ccc2ncc(F)c(CC(OC)C34CCC(NCc5ccc6c(n5)NC(=O)CO6)(CC3)CO4)c2n1.Cl` (stereo not shown) [Example 22, 6-((1-(2-(3-Fluoro-6-methoxy-1,5-naphthyridin-4-yl)-1-methoxyethyl)-2-oxabicyclo[2.2.2]octan-4-ylamino)methyl)-2H-pyrido[3,2-b][1,4]oxazin-3(4H)-one Hydrochloride], the MIC was 0.25 µg/mL.
Take `COc1ccc2ncc(F)c(CC(=O)C34CCC(NCc5ccc6c(n5)NC(=O)CO6)(CC3)CO4)c2n1` [Example 23, 6-((1-(2-(3-Fluoro-6-methoxy-1,5-naphthyridin-4-yl)acetyl)-2-oxabicyclo[2.2.2]octan-4-ylamino)methyl)-2H-pyrido[3,2-b][1,4]oxazin-3(4H)-one]: the MIC was 0.125 µg/mL (≈ 0.246 µM).
For `COc1ccc2ncc(F)c(CCC34CCC(NCc5nc6ccccc6n(C)c5=O)(CC3)CO4)c2n1` [Example 24, 3-((1-(2-(3-Fluoro-6-methoxy-1,5-naphthyridin-4-yl)ethyl)-2-oxabicyclo[2.2.2]octan-4-ylamino)methyl)-1-methylquinoxalin-2(1H)-one], the MIC was 4 µg/mL (≈ 7.94 µM).
Under `O=C1COc2ccc(CNC34CCC(CCc5c(F)cnc6ccc(N7CCOCC7)nc56)(CC3)OC4)nc2N1` [Example 28, 6-((1-(2-(3-Fluoro-6-morpholino-1,5-naphthyridin-4-yl)ethyl)-2-oxabicyclo[2.2.2]octan-4-ylamino)methyl)-2H-pyrido[3,2-b][1,4]oxazin-3(4H)-one] stands 0.5 µg/mL (≈ 0.911 µM); under `CN(C)c1ccc2ncc(F)c(CCC34CCC(NCc5ccc6c(n5)NC(=O)CO6)(CC3)CO4)c2n1` [Example 29, 6-((1-(2-(6-(Dimethylamino)-3-fluoro-1,5-naphthyridin-4-yl)ethyl)-2-oxabicyclo[2.2.2]octan-4-ylamino)methyl)-2H-pyrido[3,2-b][1,4]oxazin-3(4H)-one], 0.25 µg/mL (≈ 0.494 µM); under `Nc1ccc2ncc(F)c(CCC34CCC(NCc5ccc6c(n5)NC(=O)CO6)(CC3)CO4)c2n1` [Example 30, 6-((1-(2-(6-Amino-3-fluoro-1,5-naphthyridin-4-yl)ethyl)-2-oxabicyclo[2.2.2]octan-4-ylamino)methyl)-2H-pyrido[3,2-b][1,4]oxazin-3(4H)-one], 2 µg/mL (≈ 4.18 µM).
As for `N#Cc1ccc2ncc(F)c(CCC34CCC(NCc5ccc6c(n5)NC(=O)CO6)(CC3)CO4)c2n1` [Example 31, 7-Fluoro-8-(2-(4-((3-oxo-3,4-dihydro-2H-pyrido[3,2-b][1,4]oxazin-6-yl)methylamino)-2-oxabicyclo[2.2.2]octan-1-yl)ethyl)-1,5-naphthyridine-2-carbonitrile], the MIC is 0.063 µg/mL (≈ 0.129 µM).
